Test results as given in BindingDB's records for doi:10.1016/s0960-894x(97)10184-6 (Cinc, 1999).

Assays:
[1] = Tested for inhibition of substrate hydrolysis in the presence of porcine kidney esterase at a concentration of 1 uM
[2] = Tested for inhibition of substrate hydrolysis in the presence of porcine kidney esterase at a concentration of 9 uM
[3] = Tested for inhibition of substrate hydrolysis in the presence of porcine kidney esterase at a concentration of 45 nM

| SMILES | Ki [1] | Ki [2] | Ki [3] |
| --- | --- | --- | --- |
| COC(=O)CCC(=O)N[C@@H](C)C(=O)N[C@@H](C)C(=O)N1CCC[C@H]1C(=O)N/C(=C(/OC(C)=O)C(=O)OC)C(C)C [(E)-2-Acetoxy-3-[((S)-1-{(S)-2-[(S)-2-(3-methoxycarbonyl-propionylamino)-propionylamino]-propionyl}-pyrrolidine-2-carbonyl)-amino]-4-methyl-pent-2-enoic acid methyl ester] | 0.13 µM | 0.13 µM | – |
| COC(=O)/C(OC(C)=O)=C(\NC(=O)[C@@H]1CCCN1C(=O)[C@H](C)NC(=O)[C@H](C)NC(=O)c1ccc(C(=O)NS(=O)(=O)c2ccc(Cl)cc2)cc1)C(C)C [(E)-2-Acetoxy-3-{[(S)-1-((S)-2-{(S)-2-[4-(4-chloro-benzenesulfonylaminocarbonyl)-benzoylamino]-propionylamino}-propionyl)-pyrrolidine-2-carbonyl]-amino}-4-methyl-pent-2-enoic acid methyl ester] | – | – | 0.013 µM |
